Assay results: patent publication US8455448B2, “Myostatin isoform” (Myostin Therapeutics Pty Ltd, priority 2004, dated 2013)
Entries after “also recorded” stand apart in the source; their conditions may differ.

B1: roMSV65: 65 amino acid C-terminal peptide of ovine MSV (SEQ ID NO: 49) expressed as recombinant protein in E. coli (protein)
chain: VHFYTPPYGQWIFHKERKIIFLEVYIQFCSILGEAVFKRQSKSIHFCQNFKIIACLCNTAAFRMK
modifications: Ovis aries

How the values were obtained:
[1] = system: rats bearing the AH130 tumour; experiment: Muscle mass during cancer-induced cachexia, rats with AH130 tumour; type: in vivo, rat; settings: 1 μg/g bodymass s.c. twice daily for 6 d, six hind limb muscles, FIG. 18
Method: In this study, 21 male rats (three months of age) were allocated at random into three groups of seven. Group one was injected i.p. with sterile saline (non-cancer controls), groups two and three were inoculated i.p. with 100 μl of the AH130 tumour (Baracos et al 1995). Groups one and two were injected twice daily s.c. for six days with sterile saline, while group three was injected twice daily s.c. for six days with 1 μg/g bodymass with roMSV47. Rats were killed at day six and, at death, skeletal muscles (biceps femoris, gastrocnemius, tibialis anterior, quadriceps femoris, plantaris and soleus) were excised from the right hind limb of each rat and the wet mass expressed as a percent of the initial body mass on day 0.
The ascites hepatoma 130 (AH130) was obtained as a gift from Dr Vicki Baracos (University of Alberta, Edmonton, Alberta, Canada) and stored in cryovials in liquid nitrogen in a solution of 50% DMSO and 10% BSA. An aliquot was retrieved and thawed and 1 ml was injected i.p. into each of three donor rats and allowed to grow for seven days. The rats were killed by CO2 asphyxiation followed by cervical dislocation. […] The volume of ascites in the peritoneal cavity was removed with a syringe and the volume recorded. Six muscles in the right hind limb (biceps femoris, gastrocnemius, soleus, plantaris, tibialis anterior and quadriceps femoris) were excised and their mass recorded. […]

creatine kinase (CK) = experiment: Creatine kinase (CK-NAC) assay of blood samples of AH130 tumour rats; type: in vivo, rat; settings: 1 μg/g bodymass s.c. twice daily for 6 d, day 6, FIG. 19
Method: The ascites hepatoma 130 (AH130) was obtained as a gift from Dr Vicki Baracos (University of Alberta, Edmonton, Alberta, Canada) and stored in cryovials in liquid nitrogen in a solution of 50% DMSO and 10% BSA. An aliquot was retrieved and thawed and 1 ml was injected i.p. into each of three donor rats and allowed to grow for seven days. The rats were killed by CO2 asphyxiation followed by cervical dislocation. The ascites was harvested and 100 μl was injected i.p. into each of 14 recipient male rats (280±6 g). An equal volume of saline was injected i.p. into seven control rats. Of the 14 rats inoculated with the AH130 tumour, seven were injected s.c. twice daily with roMSV47 at a dose of 1 μg/g body mass diluted in sterile saline to a volume of 1 ml. […] The volume of ascites in the peritoneal cavity was removed with a syringe and the volume recorded. Six muscles in the right hind limb (biceps femoris, gastrocnemius, soleus, plantaris, tibialis anterior and quadriceps femoris) were excised and their mass recorded.
CK-NAC was assayed in a commercial kit (Randox laboratories Ltd, UK). Reaction volumes were scaled down proportionately so that the assays could be performed in 96-well microtitre plates with samples assayed in triplicate (CK-NAC) and read as a change in U/L per min as per manufacturer's instructions.

primary ovine myoblasts = experiment: Proliferation assay of primary ovine myoblasts (methylene blue); type: cell-based; settings: roMSV65 0 to 10 μg/ml, 72 h, FIG. 3B
Method: Myoblasts were seeded in 96-well tissue culture plates (Nunc, Roskilde, Denmark) at a cell density of 1000 cells per well in 200 μl of Dulbecco's modified Eagle's medium (DMEM, Invitrogen, California) supplemented with foetal bovine serum (FBS, 10% v/v, Invitrogen), penicillin (1×10^5 IU/l, Sigma, St Louis, Mo., USA) and streptomycin (100 mg/l, Sigma) buffered with NaHCO3 containing phenol red (7.22 nmol/l) as a pH indicator, and incubated overnight at 37° C. with 5% CO2. Medium was replaced with DMEM 10% FBS test medium containing 0, 0.001, 0.003, 0.01, 0.03, 0.1, 0.3, 1, 3 or 10 μg/ml oMSV65 in a semi-random arrangement of eight replicates (n=8) for each test medium. Plates were incubated at 37° C. with 5% CO2 for 72 hours, and then the medium was removed. The wells were washed with 200 μl of phosphate buffered saline (PBS, Oxoid, UK) and fixed with 100 μl of 10% formaldehyde, 0.9% NaCl solution for at least one hour. The fixative was then removed and 100 μl of 1% methylene blue stain in 0.01 M borate buffer (pH 8.5) was added to each well and incubated for 30 min at room temperature. Excess stain was removed by four sequential washes in borate buffer. Methylene blue was eluted from the cells by the addition of 100 μl 1:1 (v/v) ethanol/0.1 HCl. The plates were gently shaken and the absorbance was measured at 655 nm using a microplate photometer (FIGS. 3a and 3b).

p21 = p21 protein in proliferating C2C12 myoblasts (Western blot); type: cell-based, murine; settings: 0.1, 1, 10 μg/ml, 48 h, FIG. 6
Method: Thus, a decrease in p21 protein expression may indicate an increased cell proliferation rate. PCNA is a positive marker of cell proliferation. It is a subunit of DNA polymerase-delta during DNA replication in the cell cycle. Higher level of PCNA protein expression is associated with higher number of cells entering the DNA replication phase of the cell cycle.
C2C12 myoblasts were seeded in 10 cm diameter tissue culture plates (Nunc, Roskilde, Denmark) at a cell density of 3000 cells per cm^2 in 10 ml of Dulbecco's modified Eagle's medium (DMEM, Invitrogen, California) supplemented with foetal bovine serum (FBS, 10% v/v, Invitrogen), penicillin (1×105 IU/l, Sigma, St Louis, Mo., USA) and streptomycin (100 mg/l, Sigma) buffered with NaHCO3 containing phenol red (7.22 nmol/l) as a pH indicator, and incubated overnight at 37° C. with 5% CO2. The medium was replaced with the test medium: DMEM with 10% FBS supplemented with, 0.1, 1 or 10 μg/ml oMSV65 (n=3). The plates were then incubated at 37° C. with 5% CO2 for 48 hours. Cells were removed from the plate by trypsin treatment, washed with phosphate buffered saline (PBS, Oxoid, UK) and resuspended in 100 μl of lysis buffer (10 mM Hepes pH 7.9, 1.5 mM MgCl2, 10 mM KCl, 0.5% NP40, one Complete protease inhibitor tablet [Roche Diagnostics, USA] per 50 ml buffer). […] Band intensities were measured with a GS800 densitometer (BioRad, USA).

Molecule | reduction of generalised wasting of skeletal muscle induced by cancer [1] | concentrations of creatine kinase (CK) (creatine kinase (CK)) | myoblast cell growth (proliferation) (primary ovine myoblasts) | p21 protein levels in proliferating C2C12 myoblasts (p21)
roMSV47: 47 amino acid C-terminal mature ovine MSV fragment (SEQ ID NO: 50), recombinant from E. coli (IIFLEVYIQFCSILGEAVFKRQSKSIHFCQNFKIIACLCNTAAFRMK; Ovis aries) | 20% | partially restores concentrations of CK; also recorded: not as markedly reduced |  | 
B1 |  |  | stimulate myoblast cell growth in a dose dependent manner | dose-dependently decreases p21 protein levels
